The IC50 is the concentration that gives 50% inhibition.

Here are results for 13 molecules from patent US20260327191A1, “GSK3a INHIBITORS AND METHODS OF USE THEREOF” (Blueprint Medicines Corporation, priority 2023, published 2026).

The target in assay [1] is T1, human GSK3α (Homo sapiens, UniProt P49840).
T1 construct: Full length human GSK3α or GSK3B expressed as N-terminal GST fusion proteins; GST (N); purchased Carna Biosciences (Japan); host or cells: baculovirus host
In words: In vitro enzymatic activity assay, GSK3α. It counts as biochemical. The note with it: 1.0 mM ATP, 1.0 μM peptide substrate, 120 min, 25° C, read-out: Enzyme GSK3α (IC50).

Assay [2] concerns the target T2, GSK3A (Homo sapiens, UniProt P49840).
T2 construct: expressed in transfected cells
In words: NanoBRET cellular target engagement assay, Nanoluc-GSK3A in HEK293 cells. The assay is classed as cell-based. The settings on record: NanoBRET GSK3α IC50, HEK293 cells, tracer K-8, 2 hours, 37° C. Background: Bioluminescence resonance energy transfer reports proximity on the nanometre scale.

Assay [3] addresses T3, GSK3B (Homo sapiens, UniProt P49841). In words: NanoBRET cellular target engagement assay, Nanoluc-GSK3B in HEK293 cells. The note with it: NanoBRET GSK3β IC50, HEK293 cells, tracer K-8, 2 hours, 37° C. More on the design: expressed in transfected cells. It counts as cell-based.
Assay [4] concerns the target T3, GSK3B. As to the kind of experiment: In vitro enzymatic activity assay, GSK3β. It counts as biochemical. Also on record: Full length human GSK3α or GSK3B expressed as N-terminal GST fusion proteins; GST (N); purchased Carna Biosciences (Japan); host or cells: baculovirus host. The settings on record: 1.0 mM ATP, 1.0 μM peptide substrate, 120 min, 25° C, read-out: Enzyme GSK3β (IC50).

T3 sequence (P49841 whole entry, the tested form may be a part): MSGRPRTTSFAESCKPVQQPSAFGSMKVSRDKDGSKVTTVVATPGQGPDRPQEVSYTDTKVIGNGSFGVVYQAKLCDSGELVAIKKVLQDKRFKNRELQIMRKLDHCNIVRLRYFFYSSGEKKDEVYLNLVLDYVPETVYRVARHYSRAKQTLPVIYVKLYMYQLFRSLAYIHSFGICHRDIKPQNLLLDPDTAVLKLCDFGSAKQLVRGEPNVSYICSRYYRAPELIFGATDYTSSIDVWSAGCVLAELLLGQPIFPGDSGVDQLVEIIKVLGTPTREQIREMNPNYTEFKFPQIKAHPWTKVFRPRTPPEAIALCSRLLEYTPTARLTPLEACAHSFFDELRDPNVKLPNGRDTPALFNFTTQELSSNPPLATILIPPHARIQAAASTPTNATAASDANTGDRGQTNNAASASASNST
T1 sequence (P49840 whole entry, the tested form may be a part): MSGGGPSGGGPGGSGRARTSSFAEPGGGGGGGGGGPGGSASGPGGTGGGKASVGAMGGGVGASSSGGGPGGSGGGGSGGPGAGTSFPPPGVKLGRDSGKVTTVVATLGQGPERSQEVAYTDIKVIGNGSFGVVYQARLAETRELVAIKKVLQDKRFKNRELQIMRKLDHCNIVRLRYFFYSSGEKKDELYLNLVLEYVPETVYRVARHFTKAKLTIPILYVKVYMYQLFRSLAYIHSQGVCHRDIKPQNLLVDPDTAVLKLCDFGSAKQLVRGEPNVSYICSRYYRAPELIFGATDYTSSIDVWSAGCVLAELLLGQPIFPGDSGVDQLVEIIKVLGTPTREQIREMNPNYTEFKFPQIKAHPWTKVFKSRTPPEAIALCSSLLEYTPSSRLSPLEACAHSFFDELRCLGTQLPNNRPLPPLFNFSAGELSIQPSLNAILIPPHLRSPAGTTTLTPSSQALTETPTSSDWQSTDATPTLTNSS
T2 sequence (P49840 whole entry): as the sequence (P49840 whole entry, the tested form may be a part) above

In the case of `CCOc1cc(Cl)c(-n2cnc(N)c(C(=O)Nc3cncc(C(COC)NC)c3)c2=O)c(Cl)c1` (single isomer, unassigned) [Example 141, (R)-4-amino-1-(2,6-dichloro-4-ethoxyphenyl)-N-(5-(2-methoxy-1-(methylamino)ethyl)pyridin-3-yl)-6-oxo-1,6-dihydropyrimidine-5-carboxamide or (S)-4-amino-1-(2,6-dichloro-4-ethoxyphenyl)-N-(5-(2-methoxy-1-(methylamino)ethyl)pyridin-3-yl)-6-oxo-1,6-dihydropyrimidine-5-carboxamide], the IC50 came out at 4.1 nM in assay [1], 2.9 nM in assay [2], 318 nM in assay [3] and 232 nM in assay [4].

As for `CCOc1cc(Cl)c(-n2cnc(N)c(C(=O)Nc3cncc(C(C)N)c3)c2=O)c(Cl)c1` (single isomer, unassigned) [Example 142, (R)-4-amino-N-(5-(1-aminoethyl)pyridin-3-yl)-1-(2,6-dichloro-4-ethoxyphenyl)-6-oxo-1,6-dihydropyrimidine-5-carboxamide or (S)-4-amino-N-(5-(1-aminoethyl)pyridin-3-yl)-1-(2,6-dichloro-4-ethoxyphenyl)-6-oxo-1,6-dihydropyrimidine-5-carboxamide], the IC50 in assay [1] was found to be 9.8 nM; in assay [2], 4.7 nM; in assay [3] it was 350 nM; in assay [4] it was 421 nM.

Consider `CCOc1cc(Cl)c(-n2cnc(N)c(C(=O)Nc3cncc(C(N)CC(F)F)c3)c2=O)c(Cl)c1` (single isomer, unassigned) [Example 143, (R)-4-amino-N-(5-(1-amino-3,3-difluoropropyl)pyridin-3-yl)-1-(2,6-dichloro-4-ethoxyphenyl)-6-oxo-1,6-dihydropyrimidine-5-carboxamide or (S)-4-amino-N-(5-(1-amino-3,3-difluoropropyl)pyridin-3-yl)-1-(2,6-dichloro-4-ethoxyphenyl)-6-oxo-1,6-dihydropyrimidine-5-carboxamide], for which the IC50 in assay [1] is 4.9 nM; in assay [2], 4.1 nM; in assay [3], 280 nM; in assay [4], 207 nM.

`Cc1cc(CC(F)F)cc(C)c1-n1cnc(N)c(C(=O)Nc2cncc(C(C)N)c2)c1=O` (single isomer, unassigned) [Example 144, (R)-4-amino-N-(5-(1-aminoethyl)pyridin-3-yl)-1-(4-(2,2-difluoroethyl)-2,6-dimethylphenyl)-6-oxo-1,6-dihydropyrimidine-5-carboxamide or (S)-4-amino-N-(5-(1-aminoethyl)pyridin-3-yl)-1-(4-(2,2-difluoroethyl)-2,6-dimethylphenyl)-6-oxo-1,6-dihydropyrimidine-5-carboxamide]: the IC50 in assay [1] worked out at 11 nM; in assay [2] it was 5 nM; in assay [3] it was 375 nM; in assay [4], 472 nM.

Take `Cc1cc(C)c(-n2cnc(N)c(C(=O)Nc3cncc(C4CCCCCN4)c3)c2=O)c(C)c1` (single isomer, unassigned) [Example 146, (R)-4-amino-N-(5-(azepan-2-yl)pyridin-3-yl)-1-mesityl-6-oxo-1,6-dihydropyrimidine-5-carboxamide or (S)-4-amino-N-(5-(azepan-2-yl)pyridin-3-yl)-1-mesityl-6-oxo-1,6-dihydropyrimidine-5-carboxamide]: the IC50 in assay [1] came out at 7.7 nM; in assay [2], 3.7 nM; in assay [3], 340 nM; in assay [4] it was 355 nM.

Take `Cc1cc(C)c(-n2cnc(N)c(C(=O)Nc3cncc(C(C)N)c3)c2=O)c(C)c1` (single isomer, unassigned) [Example 147, (R)-4-amino-N-(5-(1-aminoethyl)pyridin-3-yl)-1-mesityl-6-oxo-1,6-dihydropyrimidine-5-carboxamide or (S)-4-amino-N-(5-(1-aminoethyl)pyridin-3-yl)-1-mesityl-6-oxo-1,6-dihydropyrimidine-5-carboxamide]: the IC50 in assay [1] was determined as 8.8 nM; in assay [2], 3.8 nM; in assay [3] it was 354 nM; in assay [4], 392 nM.

Take `CCc1cc(C)c(-n2cnc(N)c(C(=O)Nc3cncc(C4CCCCCN4)c3)c2=O)c(C)c1` (single isomer, unassigned) [Example 148, (R)-4-amino-N-(5-(azepan-2-yl)pyridin-3-yl)-1-(4-ethyl-2,6-dimethylphenyl)-6-oxo-1,6-dihydropyrimidine-5-carboxamide or (S)-4-amino-N-(5-(azepan-2-yl)pyridin-3-yl)-1-(4-ethyl-2,6-dimethylphenyl)-6-oxo-1,6-dihydropyrimidine-5-carboxamide]: the IC50 in assay [1] turned out to be 7.2 nM; in assay [2], 4.3 nM; in assay [3] it was 349 nM; in assay [4] it was 317 nM.

As to `C#CCC(N)c1cncc(NC(=O)c2c(N)ncn(-c3c(Cl)cc(OCC)cc3Cl)c2=O)c1` (single isomer, unassigned) [Example 150, (R)-4-amino-N-(5-(1-aminobut-3-yn-1-yl)pyridin-3-yl)-1-(2,6-dichloro-4-ethoxyphenyl)-6-oxo-1,6-dihydropyrimidine-5-carboxamide or (S)-4-amino-N-(5-(1-aminobut-3-yn-1-yl)pyridin-3-yl)-1-(2,6-dichloro-4-ethoxyphenyl)-6-oxo-1,6-dihydropyrimidine-5-carboxamide], the concentration for half-maximal inhibition (IC50) in assay [1] stood at 1.1 nM; in assay [2], 1 nM; in assay [3], 49.5 nM; in assay [4] it was 44.2 nM.

`C#CCC(N)c1cncc(NC(=O)c2c(N)ncn(-c3c(Cl)cc(OCC)cc3Cl)c2=O)c1` (single isomer, unassigned) [Example 151, (R)-4-amino-N-(5-(1-aminobut-3-yn-1-yl)pyridin-3-yl)-1-(2,6-dichloro-4-ethoxyphenyl)-6-oxo-1,6-dihydropyrimidine-5-carboxamide or (S)-4-amino-N-(5-(1-aminobut-3-yn-1-yl)pyridin-3-yl)-1-(2,6-dichloro-4-ethoxyphenyl)-6-oxo-1,6-dihydropyrimidine-5-carboxamide]: the IC50 in assay [1] amounted to 14.9 nM; in assay [2], 7.1 nM; in assay [3], 406 nM; in assay [4], 501 nM.

With `CCC(N)c1cncc(NC(=O)c2c(N)ncn(-c3c(Cl)cncc3Cl)c2=O)c1` (single isomer, unassigned) [Example 153, (R)-4-amino-N-(5-(1-aminopropyl)pyridin-3-yl)-1-(3,5-dichloropyridin-4-yl)-6-oxo-1,6-dihydropyrimidine-5-carboxamide or (S)-4-amino-N-(5-(1-aminopropyl)pyridin-3-yl)-1-(3,5-dichloropyridin-4-yl)-6-oxo-1,6-dihydropyrimidine-5-carboxamide], the IC50 in assay [1] is 7.8 nM; in assay [2] it was 6.4 nM; in assay [3], 491 nM; in assay [4] it was 346 nM.

Consider `Cc1cc(CCF)cc(C)c1-n1cnc(N)c(C(=O)Nc2cncc(C(C)N)c2)c1=O` (single isomer, unassigned) [Example 155, (R)-4-amino-N-(5-(1-aminoethyl)pyridin-3-yl)-1-(4-(2-fluoroethyl)-2,6-dimethylphenyl)-6-oxo-1,6-dihydropyrimidine-5-carboxamide or (S)-4-amino-N-(5-(1-aminoethyl)pyridin-3-yl)-1-(4-(2-fluoroethyl)-2,6-dimethylphenyl)-6-oxo-1,6-dihydropyrimidine-5-carboxamide], for which the IC50 in assay [1] is 9.9 nM; in assay [2], 3.7 nM; in assay [3], 279 nM; in assay [4], 374 nM.

On to `COCc1cc(C)c(-n2cnc(N)c(C(=O)Nc3cncc(C4CNC(=O)CN4)c3)c2=O)c(C)c1` (single isomer, unassigned) [Example 159, (R)-4-amino-1-(4-(methoxymethyl)-2,6-dimethylphenyl)-6-oxo-N-(5-(5-oxopiperazin-2-yl)pyridin-3-yl)-1,6-dihydropyrimidine-5-carboxamide or (S)-4-amino-1-(4-(methoxymethyl)-2,6-dimethylphenyl)-6-oxo-N-(5-(5-oxopiperazin-2-yl)pyridin-3-yl)-1,6-dihydropyrimidine-5-carboxamide], for which the IC50 in assay [1] turned out to be 90.6 nM; in assay [2], 76.9 nM; in assay [3], 5790 nM; in assay [4], 2080 nM.

`COCc1cc(C)c(-n2cnc(N)c(C(=O)Nc3cncc(C4CNC(=O)CN4)c3)c2=O)c(C)c1` (single isomer, unassigned) [Example 160, (R)-4-amino-1-(4-(methoxymethyl)-2,6-dimethylphenyl)-6-oxo-N-(5-(5-oxopiperazin-2-yl)pyridin-3-yl)-1,6-dihydropyrimidine-5-carboxamide or (S)-4-amino-1-(4-(methoxymethyl)-2,6-dimethylphenyl)-6-oxo-N-(5-(5-oxopiperazin-2-yl)pyridin-3-yl)-1,6-dihydropyrimidine-5-carboxamide]: the IC50 turned out to be 161 nM in assay [1], 197 nM in assay [2], 11300 nM in assay [3] and 2320 nM in assay [4].
